# Publication PMC10073126, “Levosimendan inhibits disulfide tau oligomerization and ameliorates tau pathology in Tau^P301L-BiFC mice” (Experimental & Molecular Medicine, 2023)
# Tests used:
# tau [1] = target: T1, tau (Homo sapiens, UniProt P10636); experiment: Tau immunoblot of tau-BiFC cell lysates (reducing and nonreducing SDS-PAGE); settings: tauK18^P301L-activated tau-BiFC cells; for Level of disulfide-linked tau oligomers compared to basal: nonreducing SDS-PAGE, control 2.4 ± 0.4-fold
# Description: For reducing SDS‒PAGE analysis, cell or brain lysates were mixed with 4x Laemmli buffer containing 10% β-mercaptoethanol (BME) and boiled at 97 °C for 5 min. For nonreducing SDS‒PAGE analysis, cell or brain lysates were mixed with 4x Laemmli buffer without BME. For immunoblot analysis, 10 μg of each lysate was separated on a 10% SDS–PAGE gel and transferred to a PVDF membrane. The levels of total tau and phosphorylated tau were detected by anti-tau antibodies against 2B11 (IBL), Tau5 (Abcam), pSer199 (Abcam), pSer396 (Abcam), and pThr205 (Abcam). […] Band intensity was quantified using ImageJ software (NIH). All data were normalized to β-actin.
# [2] = system: primary hippocampal neurons; experiment: NeuO staining, number of neurons and neurite lengths; format: cell-based; settings: for Number of NeuO-stained live neurons / Neurite length: tauK18^P301L, 48 h; for Number of NeuO-stained live neurons: basal 1925 ± 66, control 943 ± 30; for Neurite length: control 142.8 ± 17.8 μm
# Description: (§1) Primary hippocampal neurons were isolated from Day 18 embryonic Sprague‒Dawley rat brains as described previously. The neurons were seeded at a density of 3.5 × 10^5 cells per well on a poly-D-lysine-coated 6-well plate and maintained in neurobasal medium at 37 °C in a humidified atmosphere of 5% CO2. The neurobasal medium contained 2% B27 supplement, 0.5 mM GlutaMAX, 100 units/mL penicillin, and 100 μg/mL streptomycin. Every 3 days, 50% of the medium was replaced with fresh neurobasal medium. At DIV10, neurons were incubated with MB, LMTM (3 µM), or levosimendan (10 µM) in the presence of tauK18^P301L (10 µg/mL) for 48 h.
# At DIV10, neurons grown on a 96-well plate were treated with MB, LMTM (3 µM), or levosimendan (10 µM) followed by tauK18^P301L activation. After 48 h, the neurons were stained with NueO (50 nM), a neuron-selective probe. NeuO fluorescence (λex = 460–490 nm and λem = 518–580 nm) images were acquired by using Operetta® (PerkinElmer). The number of neurons and total lengths of neurites were quantified by Harmony 3.1 software (PerkinElmer). Error bars represent the standard deviations (S.D.) of four replicate experiments.
# Tau^P301L-BiFC mice [3] = experiment: Passive avoidance test; format: in vivo, mouse; settings: 5 mg/kg i.p., three times a week, 4 months; compared with vehicle-treated TG
# Description: (§2) For drug administration, LMTM and levosimendan were dissolved in PBS containing 40% polyethylene glycol (PEG; Sigma). Nine-month-old Tau^P301L-BiFC mice were intraperitoneally administered each drug for 4 months, three times a week, at a dosage of 5 mg/kg (n = 11 per group). Vehicle-treated Tau^P301L-BiFC mice and age-matched wild-type mice were used as control groups. Behavioral assessments were conducted as described below for one month from the end of drug administration. All mice were sacrificed at the age of 14 months for pathological analysis.
# The passive avoidance test was performed as described previously[44] with the following modifications. Mice (n = 8 per group) were adapted in the passive avoidance chamber (Gemini) for 10 min and then returned to their home cages. The chamber is composed of a light compartment and a dark compartment separated by a connecting gate. The following day, the mice were placed in the light compartment, and the gate was opened after 30 s. When mice entered the dark compartment, the gate was closed, and an electrical foot shock (3 mA) was delivered for 2 s. The mice were left in the dark compartment for 30 s after the foot shock so that they associated the environment with the aversive stimulus. The mice were then returned to their home cages. […] The step-through latency, the time required for mice to enter the dark compartment, was measured up to 540 s.
# Tau^P301L-BiFC mice [4] = experiment: Tau immunoblot of RIPA-soluble and RIPA-insoluble brain lysates; format: in vivo, mouse; settings: 5 mg/kg i.p., 4 months; for Level of disulfide-linked tau oligomers in the brain (nonreducing SDS-PAGE): RIPA-soluble brain lysates
# Description: (§3) Band intensity was quantified using ImageJ software (NIH). All data were normalized to β-actin.
# as §2
# Brains were weighed and suspended in RIPA lysis buffer (Sigma) containing protease and phosphatase inhibitor cocktails. Then, tissues were mechanically disrupted using a cordless mortar and pestle (Sigma) and incubated at 4 °C for 2 h with shaking. The homogenates were centrifuged at 20,000 × g at 4 °C for 20 min. The supernatants were collected as RIPA-soluble fractions and stored at −80 °C. To prepare RIPA-insoluble fractions, the remaining pellets were washed once with RIPA lysis buffer containing 1 M sucrose, resuspended in 2% SDS solution (1 mL per gram of tissue) and incubated at RT for 1 h. The mixtures were centrifuged at 20,000 × g for 1 min at RT. The supernatant was collected as RIPA-insoluble fractions and preserved at −80 °C.
# tau [5] = experiment: Tau immunoblot of primary hippocampal neuron lysates; format: cell-based, rat; settings: primary neurons, tauK18^P301L; for Level of disulfide-linked tau oligomers compared to basal: nonreducing SDS-PAGE, control 1.8 ± 0.3-fold
# Description: as §3, §1
# tau [6] = target: T1, tau; experiment: Tau-BiFC response in tau-BiFC cells (high-content imaging); format: cell-based; design: expressed in transfected cells; host or cells: HEK293 Tau-BiFC cells (G418-selected); settings: 48 h of treatment
# tauK18 = target: T2, tauK18 (Homo sapiens, UniProt P10636); experiment: In vitro tau aggregation assay (thioflavin S); format: biochemical; settings: 5 days; for EC50: tauK18 with heparin and DTT, read-out: EC50, inhibition of tau aggregation (ThS)
# T2 construct: under in vitro conditions using a purified tauK18 fragment; 6xHis; made in house; host or cells: E. coli BL21 (DE3)
# T2 sequence (P10636 561-685 limits assumed): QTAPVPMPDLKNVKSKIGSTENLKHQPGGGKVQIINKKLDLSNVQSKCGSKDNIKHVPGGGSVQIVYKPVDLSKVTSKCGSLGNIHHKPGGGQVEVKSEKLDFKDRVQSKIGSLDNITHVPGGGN
# Description: To evaluate the inhibitory effect of drugs on tau aggregation, tauK18 protein (0.5 mg/mL) was incubated with each drug at various concentrations in the presence of DTT (100 μM) and heparin (0.1 mg/mL) at 37 °C for 5 days with vigorous shaking (220 rpm). For the tau disaggregation assay, the preformed aggregation mixture of tauK18 was incubated with each drug at 37 °C for 4 days with vigorous shaking (220 rpm). On the final day of incubation, the level of β-sheet aggregates was evaluated by thioflavin S (ThS) assay. For the ThS assay, 5 μL of each mixture was transferred to a black 384-well plate with 45 μL of PBS containing 10 μM ThS. ThS fluorescence (λex = 430 nm, and λem = 500 nm) was measured by using a Flexstation2 spectrophotometer (Molecular Devices).
# Tau^P301L-BiFC mice [7] = experiment: AT8 immunofluorescence of brain tissue slices; format: in vivo, mouse; settings: 5 mg/kg i.p., 4 months
# Description: as §2
# For immunofluorescence image analysis, brain tissue slices (n = 6–8 per group) were stained with AT8 (pS202/T205) antibody (1:200, Invitrogen). The primary antibody was detected using Alexa Flour 633-conjugated anti-mouse antibody (1:500, Abcam). Fluorescence images (λex = 620–640 nm and λem = 650–700 nm) were acquired using Axio Scan. Z1 (ZEISS).
# [8] = Tau-BiFC^ON by forskolin (30 μM)
# [9] = Tau-BiFC^ON by tauK18^P301L (5 μg/mL)
# T1 sequence (P10636 1-441 isoform P10636-8): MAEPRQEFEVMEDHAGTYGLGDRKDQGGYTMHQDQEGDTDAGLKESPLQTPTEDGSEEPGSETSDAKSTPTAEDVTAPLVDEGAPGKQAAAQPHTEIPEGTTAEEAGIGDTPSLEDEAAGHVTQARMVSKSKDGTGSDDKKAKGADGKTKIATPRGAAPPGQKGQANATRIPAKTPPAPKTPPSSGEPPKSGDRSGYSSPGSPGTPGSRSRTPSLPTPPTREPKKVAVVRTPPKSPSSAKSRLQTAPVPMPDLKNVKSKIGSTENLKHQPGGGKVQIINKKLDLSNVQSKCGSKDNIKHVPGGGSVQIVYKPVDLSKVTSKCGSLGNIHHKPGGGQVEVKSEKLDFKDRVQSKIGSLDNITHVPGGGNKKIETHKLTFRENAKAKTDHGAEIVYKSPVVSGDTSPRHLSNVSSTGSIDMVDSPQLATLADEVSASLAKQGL
# T1 sequence (P10636 1-441 isoform P10636-8): as above
SMILES,Latency of entering the dark compartment (Tau^P301L-BiFC mice [3]),Level of disulfide-linked tau oligomers in the brain (nonreducing SDS-PAGE) (Tau^P301L-BiFC mice [4]),"Fold change, RIPA-insoluble tau (IB: Tau5) (Tau^P301L-BiFC mice [4]; vehicle 1.00)","Fold change, RIPA-soluble tau phosphorylation at S199 (Tau^P301L-BiFC mice [4]; vehicle 1.00)","Fold change, RIPA-soluble tau phosphorylation at S396 (Tau^P301L-BiFC mice [4]; vehicle 1.00)",EC50 (tau [6]; [8]),EC50 (tau [6]; [9]),EC50 (tauK18),AT8 immunoreactivity in the cortex compared to vehicle-treated group (Tau^P301L-BiFC mice [7]),AT8 immunoreactivity in the hippocampus compared to vehicle-treated group (Tau^P301L-BiFC mice [7]),further results
"CN(C)c1ccc2c(c1)Sc1cc(N(C)C)ccc1N2.CS(=O)(=O)O.CS(=O)(=O)O [LMTM, leucomethylene blue mesylate]",did not show significant improvement,did not increase or decrease,0.7 ± 0.1 fold,0.6 ± 0.1 fold,0.8 ± 0.2 fold,2.2 ± 0.2 µM,2.7 ± 0.2 µM,1.9 ± 0.2 µM,0.6 ± 0.2 fold,0.5 ± 0.2 fold,"Level of disulfide-linked tau oligomers compared to basal (tau [1]; 5 μM): 1.9 ± 0.4 fold; Level of pS199-positive monomers compared to basal (tau [1]; 5 μM, reducing gel): 0.3 ± 0.0 fold; Level of pS199-positive oligomers compared to basal (tau [1]; 5 μM, reducing gel): 0.4 ± 0.1 fold; Level of pT205-positive monomers compared to basal (tau [1]; 5 μM, reducing gel): 0.2 ± 0.2 fold; Level of pT205-positive oligomers compared to basal (tau [1]; 5 μM, reducing gel): 0.6 ± 0.2 fold; Number of NeuO-stained live neurons ([2]; 3 μM): 1182 ± 76 neurons; Neurite length ([2]; 3 μM): 151.1 ± 24.4 μm; Neuronal cell death in primary hippocampal neurons ([2]; higher concentrations over 10 μM (data not shown)): severe neuronal cell death; Level of disulfide-linked tau oligomers compared to basal (tau [5]; 3 μM): 2.4 ± 0.3 fold"
C[C@@H]1CC(=O)NN=C1c1ccc(NN=C(C#N)C#N)cc1 [Levosimendan],delayed latency or not entering the chamber,significantly decreased the high-molecular-weight oligomers,0.5 ± 0.2 fold,0.5 ± 0.0 fold,0.5 ± 0.1 fold,1.9 ± 0.1 µM,2.2 ± 0.1 µM,2.6 ± 0.1 µM,0.4 ± 0.1 fold,0.4 ± 0.2 fold,"Level of disulfide-linked tau oligomers compared to basal (tau [1]; 45 μM): 0.8 ± 0.2 fold; Level of tau phosphorylation at T205 compared to basal (tau [1]; 45 μM, control 1.9 ± 0.2-fold): 1.0 ± 0.1 fold; Total tau level compared to basal (tau [1]; control 2.0 ± 0.1-fold): 1.0 ± 0.2 fold; Number of NeuO-stained live neurons ([2]; 10 μM): 1650 ± 114 neurons; Neurite length ([2]; 10 μM): 346.8 ± 20.7 μm; Fold change, RIPA-soluble total tau (IB: Tau5) (Tau^P301L-BiFC mice [4]; vehicle 1.00): decreased slightly; Level of disulfide-linked tau oligomers compared to basal (tau [5]; 10 μM): 0.5 ± 0.1 fold; Total tau level compared to basal (tau [5]; 10 μM, 48 h, control 1.5 ± 0.1-fold): 1.0 ± 0.1 fold; Tau phosphorylation at S199 compared to basal (tau [5]; 10 μM, 48 h, control 1.7 ± 0.1-fold): 0.9 ± 0.1 fold; Tau phosphorylation at S396 compared to basal (tau [5]; 10 μM, 48 h, control 2.0 ± 0.3-fold): 0.9 ± 0.1 fold; Inhibition of tau aggregation in vitro (ThS response) (tauK18; heparin-induced): strong anti-tau aggregation activity"
